Calls of active or inactive are those of the source. The calls are words filed in the database; no cut-off is given here.
Assays:
[1] = test system: SH-SY5Y; experiment: Neuroprotective effect against H2O2-induced cell injury in human SH-SY5Y cells assessed as cell survival at 25 to 100 uM preincubated for 1 hr followed by H2O2 addition measured after 2 hrs by MTT assay (reference value: 57.76 %); assay type: functional; conditions: dose 25-100 µM, time 3 hrs
[2] = molecular target: T1, Acetylcholinesterase (Homo sapiens, UniProt P22303); experiment: Inhibition of AChE (unknown origin) using ATCI as substrate preincubated for 20 mins followed by substrate addition measured after 30 mins by DTNB assay
[3] = test system: SH-SY5Y; experiment: Neuroprotective effect against H2O2-induced cell injury in human SH-SY5Y cells assessed as cell survival at 25 uM preincubated for 1 hr followed by H2O2 addition measured after 2 hrs by MTT assay (reference value: 57.76 %); assay type: functional; conditions: time 3 hrs, read-out: Activity
[4] = molecular target: T1, Acetylcholinesterase; experiment: Mixed competitive inhibition of AChE (unknown origin) at 2.5 to 15 uM by DTNB assay; conditions: dose 2.5-15 µM

T1 sequence (P22303 whole entry): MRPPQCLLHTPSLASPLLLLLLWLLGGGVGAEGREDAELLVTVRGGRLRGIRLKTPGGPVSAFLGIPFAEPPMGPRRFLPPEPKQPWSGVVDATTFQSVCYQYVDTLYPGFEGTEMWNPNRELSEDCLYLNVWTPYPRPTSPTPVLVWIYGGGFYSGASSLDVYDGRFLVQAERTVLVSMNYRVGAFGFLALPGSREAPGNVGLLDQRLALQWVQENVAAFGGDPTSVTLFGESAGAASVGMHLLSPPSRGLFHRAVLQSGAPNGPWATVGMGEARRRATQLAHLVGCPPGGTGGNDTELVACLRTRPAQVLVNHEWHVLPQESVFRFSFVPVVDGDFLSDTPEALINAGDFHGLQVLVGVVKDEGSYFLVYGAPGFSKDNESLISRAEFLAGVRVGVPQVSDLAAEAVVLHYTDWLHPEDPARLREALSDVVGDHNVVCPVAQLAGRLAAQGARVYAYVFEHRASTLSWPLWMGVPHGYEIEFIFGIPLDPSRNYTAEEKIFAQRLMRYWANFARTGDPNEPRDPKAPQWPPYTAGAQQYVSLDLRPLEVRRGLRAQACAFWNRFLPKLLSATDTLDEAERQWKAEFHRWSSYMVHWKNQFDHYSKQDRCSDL

Row | Compound | Activity [1] | IC50 [2] | viability at 25 µM [3] | inhibition [4]
1 | C[C@@H]1CC[C@]2(C(=O)O)CC[C@]3(C)C(=CC[C@@H]4[C@@]5(C)C[C@@H](O)[C@H](O)[C@@](C)(CO)[C@@H]5CC[C@]43C)[C@@H]2[C@]1(C)O | >57.76% | 23.2 µM | 72.8% | 
2 | C[C@@H]1CC[C@]2(C(=O)O)CC[C@]3(C)C(=CC[C@@H]4[C@@]5(C)C[C@@H](OC(=O)CCc6ccccc6)[C@H](O)[C@@](C)(CO)[C@@H]5CC[C@]43C)[C@@H]2[C@]1(C)O | >57.76% | 11.5 µM |  | 
3 | C[C@@H]1CC[C@]2(C(=O)NCCc3c[nH]c4ccccc34)CC[C@]3(C)C(=CC[C@@H]4[C@@]5(C)C[C@@H](O)[C@H](O)[C@@](C)(CO)[C@@H]5CC[C@]43C)[C@@H]2[C@]1(C)O | >57.76% | 51.3 µM | 72.5% | 
4 | C[C@@H]1CC[C@]2(C(=O)O)CC[C@]3(C)C(=CC[C@@H]4[C@@]5(C)C[C@@H](OC(=O)CCc6ccccc6)[C@H](OC(=O)CCc6ccccc6)[C@@](C)(CO)[C@@H]5CC[C@]43C)[C@@H]2[C@]1(C)O | >57.76% | 5.84 µM | 72.5% | Active
5 | C[C@@H]1CC[C@]2(C(=O)NCc3ccc(Cl)cc3)CC[C@]3(C)C(=CC[C@@H]4[C@@]5(C)C[C@@H](O)[C@H](O)[C@@](C)(CO)[C@@H]5CC[C@]43C)[C@@H]2[C@]1(C)O | >57.76% | 64.8 µM |  | 
6 | C[C@@H]1CC[C@]2(C(=O)O)CC[C@]3(C)C(=CC[C@@H]4[C@@]5(C)C[C@@H](OC(=O)c6ccc(Cl)cc6)[C@H](OC(=O)c6ccc(Cl)cc6)[C@@](C)(COC(=O)c6ccc(Cl)cc6)[C@@H]5CC[C@]43C)[C@@H]2[C@]1(C)O | >57.76% | 5.91 µM |  | 
7 | C[C@@H]1CC[C@]2(C(=O)O)CC[C@]3(C)C(=CC[C@@H]4[C@@]5(C)C[C@@H](OC(=O)c6ccc(C(F)(F)F)cc6)[C@H](OC(=O)c6ccc(C(F)(F)F)cc6)[C@@](C)(CO)[C@@H]5CC[C@]43C)[C@@H]2[C@]1(C)O | >57.76% | 43.4 µM |  | 
8 | C[C@@H]1CC[C@]2(C(=O)O)CC[C@]3(C)C(=CC[C@@H]4[C@@]5(C)C(C=O)=C[C@@](C)(COC(=O)CCc6ccccc6)[C@@H]5CC[C@]43C)[C@@H]2[C@]1(C)O | >57.76% | 46.2 µM |  | 
9 | C[C@@H]1CC[C@]2(C(=O)NCc3cccc(Cl)c3)CC[C@]3(C)C(=CC[C@@H]4[C@@]5(C)C[C@@H](O)[C@H](O)[C@@](C)(CO)[C@@H]5CC[C@]43C)[C@@H]2[C@]1(C)O | >57.76% | 63 µM |  | 
10 | C[C@@H]1CC[C@]2(C(=O)O)CC[C@]3(C)C(=CC[C@@H]4[C@@]5(C)C[C@@H](OC(=O)c6ccc(Cl)cc6)[C@H](OC(=O)c6ccc(Cl)cc6)[C@@](C)(CO)[C@@H]5CC[C@]43C)[C@@H]2[C@]1(C)O | >57.76% | 21.2 µM | 72.5% | 
11 | C[C@@H]1CC[C@]2(C(=O)O)CC[C@]3(C)C(=CC[C@@H]4[C@@]5(C)C[C@@H](O)[C@H](OC(=O)c6ccc(C(F)(F)F)cc6)[C@@](C)(CO)[C@@H]5CC[C@]43C)[C@@H]2[C@]1(C)O | >57.76% | > 100 µM |  | 
12 | C[C@@H]1CC[C@]2(C(=O)O)CC[C@]3(C)C(=CC[C@@H]4[C@@]5(C)C(C=O)=C[C@@](C)(CO)[C@@H]5CC[C@]43C)[C@@H]2[C@]1(C)O | >57.76% | > 100 µM |  | 
13 | C[C@@H]1CC[C@]2(C(=O)NCc3cccc(Br)c3)CC[C@]3(C)C(=CC[C@@H]4[C@@]5(C)C[C@@H](O)[C@H](O)[C@@](C)(CO)[C@@H]5CC[C@]43C)[C@@H]2[C@]1(C)O | >57.76% | 78 µM | 72.5% | 
14 | C[C@@H]1CC[C@]2(C(=O)NCc3ccccc3F)CC[C@]3(C)C(=CC[C@@H]4[C@@]5(C)C[C@@H](O)[C@H](O)[C@@](C)(CO)[C@@H]5CC[C@]43C)[C@@H]2[C@]1(C)O | <57.76% | > 100 µM |  | 
15 | COc1ccc(C(=O)O[C@]2(C)[C@H](C)CC[C@]3(C(=O)O)CC[C@]4(C)C(=CC[C@@H]5[C@@]6(C)C[C@@H](O)[C@H](O)[C@@](C)(CO)[C@@H]6CC[C@]54C)[C@@H]32)cc1 | >57.76% | 63.5 µM | 72.5% | 
16 | CCCCCC(=O)OC[C@]1(C)C=C(C=O)[C@@]2(C)[C@H]1CC[C@]1(C)[C@@H]2CC=C2[C@H]3[C@](C(=O)O)(CC[C@@H](C)[C@@]3(C)O)CC[C@]21C | >57.76% | > 100 µM |  | 
17 | C[C@@H]1CC[C@]2(C(=O)O)CC[C@]3(C)C(=CC[C@@H]4[C@@]5(C)C(C=O)=C[C@@](C)(COC(=O)c6ccc(Cl)cc6)[C@@H]5CC[C@]43C)[C@@H]2[C@]1(C)OC(=O)c1ccc(Cl)cc1 | >57.76% | > 100 µM |  | 

Row | Compound | Activity [1] | IC50 [2] | viability at 25 µM [3] | inhibition [4]
18 | C[C@@H]1CC[C@]2(C(=O)NCc3ccccc3Br)CC[C@]3(C)C(=CC[C@@H]4[C@@]5(C)C[C@@H](O)[C@H](O)[C@@](C)(CO)[C@@H]5CC[C@]43C)[C@@H]2[C@]1(C)O | >57.76% | 47.7 µM |  | 
19 | Cc1c(C)c2c(c(C)c1O)CCC(C)(C(=O)O)O2 (centres undefined) [TROLOX] | >57.76% |  | 72.6% | 
20 | C[C@@H]1CC[C@]2(C(=O)NCc3ccccc3)CC[C@]3(C)C(=CC[C@@H]4[C@@]5(C)C[C@@H](O)[C@H](O)[C@@](C)(CO)[C@@H]5CC[C@]43C)[C@@H]2[C@]1(C)O | >57.76% | 65.1 µM | 72.5% | 
21 | C[C@@H]1CC[C@]2(C(=O)O)CC[C@]3(C)C(=CC[C@@H]4[C@@]5(C)C(C=O)=C[C@@](C)(COC(=O)c6ccc(C(F)(F)F)cc6)[C@@H]5CC[C@]43C)[C@@H]2[C@]1(C)O | >57.76% | > 100 µM |  | 
22 | C[C@@H]1CC[C@]2(C(=O)NCc3ccc(Br)cc3)CC[C@]3(C)C(=CC[C@@H]4[C@@]5(C)C[C@@H](O)[C@H](O)[C@@](C)(CO)[C@@H]5CC[C@]43C)[C@@H]2[C@]1(C)O | >57.76% | 84.5 µM |  | 
23 | C[C@@H]1CC[C@]2(C(=O)NCc3cccc(F)c3)CC[C@]3(C)C(=CC[C@@H]4[C@@]5(C)C[C@@H](O)[C@H](O)[C@@](C)(CO)[C@@H]5CC[C@]43C)[C@@H]2[C@]1(C)O | <57.76% | > 100 µM |  | 
24 | C[C@@H]1CC[C@]2(C(=O)O)CC[C@]3(C)C(=CC[C@@H]4[C@@]5(C)C[C@@H](O)OCC(C)(C=O)[C@@H]5CC[C@]43C)[C@@H]2[C@]1(C)O (some centres undefined) | >57.76% | > 100 µM |  | 
25 | CCCC(=O)OC[C@]1(C)C=C(C=O)[C@@]2(C)[C@H]1CC[C@]1(C)[C@@H]2CC=C2[C@H]3[C@](C(=O)O)(CC[C@@H](C)[C@@]3(C)O)CC[C@]21C | <57.76% | > 100 µM |  | 
26 | C[C@@H]1CC[C@]2(C(=O)O)CC[C@]3(C)C(=CC[C@@H]4[C@@]5(C)C[C@@H](OC(=O)c6ccc(Cl)cc6)[C@H](O)[C@@](C)(CO)[C@@H]5CC[C@]43C)[C@@H]2[C@]1(C)OC(=O)c1ccc(Cl)cc1 | <57.76% | 54.3 µM |  | 
27 | COc1ccc(C(=O)O[C@]2(C)[C@H](C)CC[C@]3(C(=O)O)CC[C@]4(C)C(=CC[C@@H]5[C@@]6(C)C(C=O)=C[C@@](C)(CO)[C@@H]6CC[C@]54C)[C@@H]32)cc1 | >57.76% | > 100 µM |  | 
28 | C[C@@H]1CC[C@]2(C(=O)O)CC[C@]3(C)C(=CC[C@@H]4[C@@]5(C)C(C=O)=C[C@@](C)(COC(=O)c6ccc(F)cc6)[C@@H]5CC[C@]43C)[C@@H]2[C@]1(C)O | <57.76% | 71.9 µM |  | 
29 | CCCCCCNC(=O)[C@]12CC[C@@H](C)[C@@](C)(O)[C@H]1C1=CC[C@@]3(C)[C@@](C)(CC[C@H]4[C@](C)(CO)[C@@H](O)[C@H](O)C[C@@]43C)[C@]1(C)CC2 | >57.76% | > 100 µM |  | 
30 | C[C@@H]1CC[C@]2(C(=O)NCc3ccc(F)cc3)CC[C@]3(C)C(=CC[C@@H]4[C@@]5(C)C[C@@H](O)[C@H](O)[C@@](C)(CO)[C@@H]5CC[C@]43C)[C@@H]2[C@]1(C)O | <57.76% | > 100 µM |  | 
31 | COc1ccc(C(=O)OC[C@]2(C)C=C(C=O)[C@@]3(C)[C@H]2CC[C@]2(C)[C@@H]3CC=C3[C@H]4[C@](C(=O)O)(CC[C@@H](C)[C@@]4(C)OC(=O)c4ccc(OC)cc4)CC[C@]32C)cc1 | >57.76% | 70.2 µM |  | 
32 | C[C@@H]1CC[C@]2(C(=O)NCCc3ccc(Cl)c(Cl)c3)CC[C@]3(C)C(=CC[C@@H]4[C@@]5(C)C[C@@H](O)[C@H](O)[C@@](C)(CO)[C@@H]5CC[C@]43C)[C@@H]2[C@]1(C)O | >57.76% | > 100 µM |  | 
33 | C[C@@H]1CC[C@]2(C(=O)NC3CCCCC3)CC[C@]3(C)C(=CC[C@@H]4[C@@]5(C)C[C@@H](O)[C@H](O)[C@@](C)(CO)[C@@H]5CC[C@]43C)[C@@H]2[C@]1(C)O | >57.76% | 80.4 µM |  | 
